Measured values taken from patent publication US7875270B2, “Treatment solution and method for preventing posterior capsular opacification by selectively inducing detachment and/or death of lens epithelial cells” (Abbott Medical Optics Inc., priority 2002, dated 2011).

Assays:
[1] = test system: human LECs-CCCs freshly removed from cataract operation; experiment: In situ treatment of LECs attached to capsulorhexis lens capsule (LECs-CCC); type: cell-based; conditions: 200 or 300 μm NEM in PBS
Method: The in situ effects of a treatment solution comprising dihydrochlorothiazide (DHCT) (a cotransport interference agent from the group of the thiazide and related diuretics) and hyperosmotic NaCl on human LECs is examined. The treatment is tested on LECs that are still attached to a continuous curvilinear capsulorhexis lens capsule (LECs-CCC) which are freshly removed from a human cataract operation.
The LECs-CCCs are obtained from a cataract operation and immediately put in freshly prepared Eagle's Minimum Essential Medium (MEM) supplemented with 2 mM glutamine, 25 mmol/L Hepes (pH 7.4) without foetal cow serum (FCS) and is transferred to the laboratory for evaluation. Viable LECs are identified by staining the LECs-CCCs for five minutes with 0.2% Trypan Blue. The sheets containing more than 70% viable LECs are used to assess the efficacy of the treatment. […]
In the first step, a hyperosmotic solution of NaCl is prepared by making a stock solution of 2 M NaCl by adding 58.44 g NaCl (supplied by Sigma Chemical Co., U.S.) to 500 ml dH2O. The desired concentration of osmotic NaCl is prepared by diluting the 2M stock solution with dH2O. For example, to make a hyperosmotic solution of 170 mM NaCl, the 2M NaCl stock solution was diluted with dH2O at a ratio of […]. To make a hyperosmotic solution of 200 mM NaCl, the 2M NaCl stock solution is diluted with dH2O at a ratio of 1 to 9. Final osmolarities (mOsm/kg/H2O) are determined by a freezing point depression method using cryoscopic osmometry.
In the second step, DHCT stock solution is made by adding 25 mg DHCT to 1 ml dH2O. […]
The treatment is applied by exposing the LECs-CCCs for five minutes in a small petri dish containing the treatment solution. The treatment solution is removed after five minutes exposure by a syringe and then the fresh PBS is added in the petri dish to wash away the treatment solution. The LECs-CCCs are washed three times. The changes of the LECS are monitored under a microscope. Microscope photographs are taken at 0, 2 and 5 minutes and after wash.

[2] = test system: in vivo rabbit eyes; experiment: In vivo prevention of PCO after cataract operation in rabbit eyes; conditions: 200 or 300 μm NEM in PBS or 170 mM monnitol
Method: The experimental group includes sixteen rabbit eyes and the control group includes four rabbit eyes. A sham cataract operation is performed on the control animals. The therapy is introduced to the others.
The pupil of each rabbit eye is preoperatively dilated with topical G Phenylephrine 10% (Alcon Labs., Inc., China) and G Cyclopentolate 1% (Bausch & Lomb Pharm., Inc., USA) three times in one hour. The rabbits are anesthetized with ketamine hydrochloride (5 mg kg-1) and xylazine hydrochloride (2 mg kg-1) and placed on an operating table. A topical anesthetic (Dieaine hydrochloride 1%) is used every five minutes on two occasions. A wire lid speculum is placed to hold the eyelids open.
A 3.2 mm scleral tunnel incision into the eye is formed at the temporal limbus. The anterior chamber is maintained with viscoelastic substances and a 4-5 mm diameter continuous curvilinear capsularhexis (CCC) is made on the anterior surface of the lens to open its bag. The treatment solution is first introduced in the LECs by hydrodissection. This ensures that the treatment fluid immediately reaches under the entire anterior capsule/LECs. This process allows for (i) separation of the lens cortex from the capsule and lens epithelium, making removal of the lens cortex easier at a later stage of the operation and (ii) the LECs to be exposed to the treatment for enough time (more than five minutes in total time).
The crystalline lens is then removed using phacoemulsification (Universal II, Alcon Labs., Inc., China). The remaining cortex is aspirated thoroughly and removed as completely as possible to expose the LECs. The lens capsular bag is then partially filed with viscoelastic material in order to maintain its shape. The viscoelastic material should not cover the LECs when the treatment solution is applied.
The treatment is spread over the inner surface of the anterior capsular bag (where the LECs attach). The anterior capsular is continuously filled by using a syringe with a bent needle. Care is taken not to over flow the bag. After the treatment solution covered the capsule bag, it is left for five minutes and then removed using a syringe.
In a few cases, IOLs are inserted. […] At the same time, the incision is enlarged to 6.0 mm and a posterior ocular lens (IOLs) (poly-methyl methacrylate, PMMA) with a 6.5 mm optic is prepared and placed into the capsular bag.
The wound is closed with or without suture.
At the completion of the surgical procedure, each rabbit eye receives subconjunctival dexamethasone (0.25 ml) and gentamicin (0.25 ml). Postoperatively, atropine sulphate 1% ophthalmic solution and neomycin sulphate-polymyxin sulphate-dexamethasone ophthalmic ointment are administered twice daily for three weeks.
The animals are evaluated for three weeks and ten weeks. […] All rabbits are evaluated by slitlamp and scored for ocular responses at 1 day and at 1, 2 and 3 weeks. (See FIG. 17, Table 1.) Three and ten weeks after surgery, the animals are anesthetized using a 2 ml intramuscular injection of 11:1 mixture of ketamine hydrochloride and xylazine 20 mg/ml and then killed with a 2 ml intravenous injection of sodium pentobarbital.
The eye globes are enucleated (some of them fixed in neutral buffered formalin 10% solution for 24 hours) and are bisected coronally just anterior to the equator. Gross examination is performed to assess. PCO development. Photographs are taken from behind (Miyake-Apple posterior photographic technique) by using a digital camera fitted to an operating microscope (Leica/Wild MZ-8, Vashaw Scientific, Inc.).
The extent and severity of PCO is scored (see FIG. 17, Table 1) according to methods reported in the literature. The lens capsules are then fixed and evaluated under a microscope (Olumpus, Optical Co. Ltd.) and photographed with a digital camera.

[3] = test system: in vivo rabbit eyes; experiment: as above; conditions: IOLs coated with 300 μm NEM in PBS, dried overnight, inserted into the lens capsular bag

CCN1C(=O)C=CC1=O [NEM, N-ethylmaleimide]
LEC changes after five minutes of acute exposure [1]: almost no changes are observed
LEC changes once put into PBS washing solution ([1]; after treatment): shrink and large gaps form between the cells. The shrunken cells then detach
LECs on the lens capsule bag under microscope [2]: no LECs on the lens capsule bag
development of CPCO or PPCO ([2]; 3 and 10 weeks follow up): no CPCO or PPCO develops
intraocular inflammatory reaction ([2]; solution introduced directly): heavy intraocular inflammatory reaction in the early period and posterior synechiae
anterior chamber (AC) reaction [3]: significantly reduces the AC reaction
